Data as given in ChEMBL document CHEMBL4138123, “Design, synthesis and biological evaluation of novel pyrazolochalcones as potential modulators of PI3K/Akt/mTOR pathway and inducers of apoptosis in breast cancer cells” (Eur J Med Chem, 2017).

Legend:
Format in all cases: functional
MOLT-4 = experiment: Cytotoxicity against human MOLT4 cells assessed as growth inhibition after 48 hrs by sulforhodamine B assay; details: MOLT-4, 48 h; for CC50: read-out: LC50 (the source's name)
NCI-H460 = experiment: Cytotoxicity against human NCI-H460 cells assessed as growth inhibition after 48 hrs by sulforhodamine B assay; details: NCI-H460, 48 h
SF-539 [1] = experiment: Cytotoxicity against human SF539 cells assessed as growth inhibition after 48 hrs by sulforhodamine B assay; details: SF-539, 48 h
SK-MEL-28 = experiment: Cytotoxicity against human SK-MEL-28 cells assessed as growth inhibition after 48 hrs by sulforhodamine B assay; details: SK-MEL-28, 48 h
UACC-62 = experiment: Cytotoxicity against human UACC62 cells assessed as growth inhibition after 48 hrs by sulforhodamine B assay; details: UACC-62, 48 h
OVCAR-3 = experiment: Cytotoxicity against human OVCAR3 cells assessed as growth inhibition after 48 hrs by sulforhodamine B assay; details: OVCAR-3, 48 h
786-0 = experiment: Cytotoxicity against human 786-0 cells assessed as growth inhibition after 48 hrs by sulforhodamine B assay; details: 786-0, 48 h
RXF 393 = experiment: Cytotoxicity against human RXF393 cells assessed as growth inhibition after 48 hrs by sulforhodamine B assay; details: RXF 393, 48 h
MDA-MB-231 [2] = experiment: Cytotoxicity against human MDA-MB-231 cells assessed as growth inhibition after 48 hrs by sulforhodamine B assay; details: MDA-MB-231, 48 h
ACHN = experiment: Cytotoxicity against human ACHN cells assessed as cell growth at 0.01 uM after 48 hrs by sulforhodamine B assay relative to control; details: read-out: Activity
UACC-257 = experiment: Cytotoxicity against human UACC257 cells assessed as cell growth at 0.01 uM after 48 hrs by sulforhodamine B assay relative to control; details: UACC-257, 48 h, read-out: Activity
SK-MEL-5 = experiment: Cytotoxicity against human SK-MEL-5 cells assessed as cell growth at 0.01 uM after 48 hrs by sulforhodamine B assay relative to control; details: SK-MEL-5, 48 h, read-out: Activity
SNB-19 = experiment: Cytotoxicity against human SNB19 cells assessed as cell growth at 0.01 uM after 48 hrs by sulforhodamine B assay relative to control; details: SNB-19, 48 h, read-out: Activity
HCT-116 = experiment: Cytotoxicity against human HCT116 cells assessed as cell growth at 0.01 uM after 48 hrs by sulforhodamine B assay relative to control; details: HCT-116, 48 h, read-out: Activity
K562 = experiment: Cytotoxicity against human K562 cells assessed as cell growth at 0.01 uM after 48 hrs by sulforhodamine B assay relative to control; details: K562, 48 h, read-out: Activity
SN12C = experiment: Cytotoxicity against human SN12C cells assessed as cell growth at 0.01 uM after 48 hrs by sulforhodamine B assay relative to control; details: read-out: Activity
RPMI-8226 = experiment: Cytotoxicity against human RPMI8226 cells assessed as cell growth at 0.1 uM after 48 hrs by sulforhodamine B assay relative to control; details: RPMI-8226, 48 h, read-out: Activity
NCI-H522 [3] = experiment: Cytotoxicity against human NCI-H522 cells assessed as cell growth at 0.1 uM after 48 hrs by sulforhodamine B assay relative to control; details: NCI-H522, 48 h, read-out: Activity
SF-539 [4] = experiment: Cytotoxicity against human SF539 cells assessed as cell growth at 0.1 uM after 48 hrs by sulforhodamine B assay relative to control; details: SF-539, 48 h, read-out: Activity
MDA-MB-435 = experiment: Cytotoxicity against human MDA-MB-435 cells assessed as cell growth at 0.1 uM after 48 hrs by sulforhodamine B assay relative to control; details: MDA-MB-435, 48 h, read-out: Activity
OVCAR-5 [5] = experiment: Cytotoxicity against human OVCAR5 cells assessed as cell growth at 0.1 uM after 48 hrs by sulforhodamine B assay relative to control; details: OVCAR-5, 48 h, read-out: Activity
UO-31 = experiment: Cytotoxicity against human UO31 cells assessed as cell growth at 0.1 uM after 48 hrs by sulforhodamine B assay relative to control; details: UO-31, 48 h, read-out: Activity
A549 = experiment: Cytotoxicity against human A549/ATCC cells assessed as cell growth at 1 uM after 48 hrs by sulforhodamine B assay relative to control; details: A549, 48 h, read-out: Activity
SW-620 = experiment: Cytotoxicity against human SW620 cells assessed as cell growth at 1 uM after 48 hrs by sulforhodamine B assay relative to control; details: SW-620, 48 h, read-out: Activity
MDA-MB-231 [6] = experiment: Cytotoxicity against human MDA-MB-231 cells assessed as cell growth at 1 uM after 48 hrs by sulforhodamine B assay relative to control; details: MDA-MB-231, 48 h, read-out: Activity
HCC 2998 [7] = experiment: Cytotoxicity against human HCC2998 cells assessed as cell growth at 10 uM after 48 hrs by sulforhodamine B assay relative to control; details: HCC 2998, 48 h, read-out: Activity
SF-268 = experiment: Cytotoxicity against human SF268 cells assessed as cell growth at 10 uM after 48 hrs by sulforhodamine B assay relative to control; details: SF-268, 48 h, read-out: Activity
OVCAR-5 [8] = experiment: Cytotoxicity against human OVCAR5 cells assessed as cell growth at 10 uM after 48 hrs by sulforhodamine B assay relative to control; details: OVCAR-5, 48 h, read-out: Activity
CCRF-CEM = experiment: Cytotoxicity against human CCRF-CEM cells assessed as cell growth at 100 uM after 48 hrs by sulforhodamine B assay relative to control; details: read-out: Activity
NCI-H522 [9] = experiment: Cytotoxicity against human NCI-H522 cells assessed as cell growth at 100 uM after 48 hrs by sulforhodamine B assay relative to control; details: NCI-H522, 48 h, read-out: Activity
HCC 2998 [10] = experiment: Cytotoxicity against human HCC2998 cells assessed as cell growth at 100 uM after 48 hrs by sulforhodamine B assay relative to control; details: HCC 2998, 48 h, read-out: Activity
U-251 = experiment: Cytotoxicity against human U251 cells assessed as cell growth at 100 uM after 48 hrs by sulforhodamine B assay relative to control; details: U-251, 48 h, read-out: Activity
MCF7 = experiment: Cytotoxicity against human MCF7 cells assessed as cell growth at 100 uM after 48 hrs by sulforhodamine B assay relative to control; details: MCF7, 48 h, read-out: Activity

## COc1ccc(-c2cc(/C=C/C(=O)c3ccc4c(c3)OCO4)[nH]n2)cc1OC
MOLT-4
  GI50: 2200 nM
NCI-H460
  GI50: 600 nM
SF-539 [1]
  GI50: 520 nM
SK-MEL-28
  GI50: 1820 nM
UACC-62
  GI50: 1860 nM
OVCAR-3
  GI50: 1960 nM
786-0
  GI50: 1810 nM
RXF 393
  GI50: 1920 nM
MDA-MB-231 [2]
  GI50: 1880 nM

## COc1cc(-c2cc(/C=C/C(=O)c3ccc(N)cc3)[nH]n2)cc(OC)c1OC
MOLT-4
  GI50: 1910 nM
  TGI: 8.51 µM
  CC50: > 100 µM
NCI-H460
  GI50: 1800 nM
  LC50: 44.8 µM
  TGI: 5.1 µM
SF-539 [1]
  GI50: 1300 nM
  LC50 (concentration killing 50% of cells): 5.42 µM
  TGI: 2660 nM
SK-MEL-28
  GI50: 1860 nM
  LC50: 8.93 µM
  TGI: 4.08 µM
UACC-62
  GI50: 1700 nM
  LC50: 7.51 µM
  TGI: 3.58 µM
OVCAR-3
  GI50: 1570 nM
  LC50: 7.26 µM
  TGI: 3.37 µM
786-0
  GI50: 2040 nM
  LC50: 27.6 µM
  TGI: 6.49 µM
RXF 393
  GI50: 1350 nM
  LC50 (concentration killing 50% of cells): 7.79 µM
  TGI: 3.24 µM
MDA-MB-231 [2]
  GI50: 2060 nM
  LC50: 47.5 µM
  TGI: 12.2 µM
ACHN
  growth at 0.01 µM: 95%
UACC-257
  growth at 0.01 µM: 94%
SK-MEL-5
  growth at 0.01 µM: 95%
SNB-19
  growth at 0.01 µM: 96%
HCT-116
  growth at 0.01 µM: 95%
K562
  growth at 0.01 µM: 100%
SN12C
  growth at 0.01 µM: 98%
RPMI-8226
  growth at 0.1 µM: 97%
NCI-H522 [3]
  growth at 0.1 µM: 92%
SF-539 [4]
  growth at 0.1 µM: 99%
MDA-MB-435
  growth at 0.1 µM: 95%
OVCAR-5 [5]
  growth at 0.1 µM: 103%
UO-31
  growth at 0.1 µM: 91%
A549
  growth at 1 µM: 80%
SW-620
  growth at 1 µM: 82%
MDA-MB-231 [6]
  growth at 1 µM: 70%
HCC 2998 [7]
  growth at 10 µM: -86%
SF-268
  growth at 10 µM: -55%
OVCAR-5 [8]
  growth at 10 µM: -66%
CCRF-CEM
  growth at 100 µM: -21%
NCI-H522 [9]
  growth at 100 µM: -83%
HCC 2998 [10]
  growth at 100 µM: -91%
U-251
  growth at 100 µM: -98%
MCF7
  growth at 100 µM: -57%

## COc1ccc(-c2cc(/C=C/C(=O)c3cc(OC)c(OC)c(OC)c3)[nH]n2)cc1OC
MOLT-4
  GI50: 1810 nM
  TGI: 8.86 µM
  CC50: > 100 µM
NCI-H460
  GI50: 1040 nM
  LC50: 29.9 µM
  TGI: 3.6 µM
SF-539 [1]
  GI50: 300 nM
  LC50 (concentration killing 50% of cells): 4.57 µM
  TGI: 1480 nM
SK-MEL-28
  GI50: 1910 nM
  LC50: 10.6 µM
  TGI: 4.41 µM
UACC-62
  GI50: 1790 nM
  LC50: 8.39 µM
  TGI: 3.88 µM
OVCAR-3
  GI50: 1590 nM
  LC50: 6.23 µM
  TGI: 3.15 µM
786-0
  GI50: 1500 nM
  LC50: 5.6 µM
  TGI: 2.9 µM
RXF 393
  GI50: 1530 nM
  LC50 (concentration killing 50% of cells): 6.51 µM
  TGI: 3.16 µM
MDA-MB-231 [2]
  GI50: 2020 nM
  LC50: 55.4 µM
  TGI: 13.5 µM
ACHN
  growth at 0.01 µM: 95%
UACC-257
  growth at 0.01 µM: 96%
SK-MEL-5
  growth at 0.01 µM: 101%
SNB-19
  growth at 0.01 µM: 91%
HCT-116
  growth at 0.01 µM: 100%
K562
  growth at 0.01 µM: 100%
SN12C
  growth at 0.01 µM: 98%
RPMI-8226
  growth at 0.1 µM: 85%
NCI-H522 [3]
  growth at 0.1 µM: 86%
SF-539 [4]
  growth at 0.1 µM: 81%
MDA-MB-435
  growth at 0.1 µM: 91%
OVCAR-5 [5]
  growth at 0.1 µM: 92%
UO-31
  growth at 0.1 µM: 82%
A549
  growth at 1 µM: 82%
SW-620
  growth at 1 µM: 70%
MDA-MB-231 [6]
  growth at 1 µM: 67%
HCC 2998 [7]
  growth at 10 µM: -93%
SF-268
  growth at 10 µM: -56%
OVCAR-5 [8]
  growth at 10 µM: -47%
CCRF-CEM
  growth at 100 µM: -13%
NCI-H522 [9]
  growth at 100 µM: -90%
HCC 2998 [10]
  growth at 100 µM: -82%
U-251
  growth at 100 µM: -94%
MCF7
  growth at 100 µM: -43%

## COc1ccc(C(=O)/C=C/c2cc(-c3ccc(OC)c(OC)c3)n[nH]2)cc1OC
MOLT-4
  GI50: 2200 nM
  TGI: > 100 µM
  CC50: > 100 µM
NCI-H460
  GI50: 606 nM
  TGI: 4.36 µM
SF-539 [1]
  GI50: 525 nM
  TGI: 2540 nM
SK-MEL-28
  GI50: 1820 nM
  TGI: 4.82 µM
UACC-62
  GI50: 1860 nM
  TGI: 4.08 µM
OVCAR-3
  GI50: 1960 nM
  TGI: 4.72 µM
786-0
  GI50: 1810 nM
  TGI: 5.14 µM
RXF 393
  GI50: 1450 nM
  TGI: 2.98 µM
MDA-MB-231 [2]
  GI50: 1880 nM
  TGI: 6.38 µM
ACHN
  growth at 0.01 µM: 93%
UACC-257
  growth at 0.01 µM: 93%
SK-MEL-5
  growth at 0.01 µM: 96%
SNB-19
  growth at 0.01 µM: 91%
HCT-116
  growth at 0.01 µM: 94%
K562
  growth at 0.01 µM: 101%
SN12C
  growth at 0.01 µM: 101%
RPMI-8226
  growth at 0.1 µM: 91%
NCI-H522 [3]
  growth at 0.1 µM: 94%
SF-539 [4]
  growth at 0.1 µM: 89%
MDA-MB-435
  growth at 0.1 µM: 94%
OVCAR-5 [5]
  growth at 0.1 µM: 94%
UO-31
  growth at 0.1 µM: 91%
A549
  growth at 1 µM: 77%
SW-620
  growth at 1 µM: 66%
MDA-MB-231 [6]
  growth at 1 µM: 76%
HCC 2998 [7]
  growth at 10 µM: -94%
SF-268
  growth at 10 µM: -1%
OVCAR-5 [8]
  growth at 10 µM: -30%
CCRF-CEM
  growth at 100 µM: -20%
NCI-H522 [9]
  growth at 100 µM: -75%
HCC 2998 [10]
  growth at 100 µM: -91%
U-251
  growth at 100 µM: -53%
MCF7
  growth at 100 µM: -40%
